{
  "source": "patent US20100189675A1",
  "about": "“COSMETIC USE OF AN IMIDOPERCARBOXYLIC ACID DERIVATIVE AS DESQUAMATING AGENT” (L'Oreal, priority 2007, published 2010)",
  "system": "corneocytes",
  "experiment": "In vitro test of desquamating efficacy (corneocytes liberated, expressed as protein concentration)",
  "assay_type": "cell-based",
  "procedure": "An in vitro test was carried out in order to determine the efficacy of phthalimidoperoxycaproic acid compared with a composition comprising 30% of glycolic acid and 70% of water. The number of corneocytes liberated is expressed as protein concentration. After applying a composition comprising 17% of phthalimidoperoxycaproic acid, the protein concentration is about 320 μg/ml, while it is about 210 μg/ml for the composition comprising glycolic acid.",
  "data": [
    {"smiles": "O=C(O)CO", "note": "[glycolic acid, reference compound]", "values": [
      {"measurement": "number of corneocytes liberated expressed as protein concentration", "setting": "composition comprising 30% of glycolic acid and 70% of water", "result": "about 210 μg/ml"}
    ]},
    {"smiles": "O=C(CCCCCN1C(=O)c2ccccc2C1=O)OO", "note": "[phthalimidoperoxycaproic acid]", "values": [
      {"measurement": "number of corneocytes liberated expressed as protein concentration", "setting": "after applying a composition comprising 17% of phthalimidoperoxycaproic acid", "result": "about 320 μg/ml"},
      {"measurement": "desquamating efficacy compared with reference", "setting": "compared with glycolic acid (AG) at 30%", "result": "high desquamating efficacy greater than the reference glycolic acid"}
    ]}
  ]
}
